Laboratory results reported in US6518005B2, “Silver halide multilayer color photographic material” (Ferrania, S.p.A., priority 2000, dated 2003).

Key:
[1] = Absorption of methanol solutions of the dyes (λmax and density at 400, 450, 500 nm); assay type: physicochemical; settings: for D400: density measured at 400 nm; for D400 / D450 / D500: methanol solution with density 0.6 at λmax; for D450: density measured at 450 nm; for D500: density measured at 500 nm; for λmax (nm): methanol solution, density 0.6 at λmax; for spectral region absorbed (in words): methanol solutions, from the data of Table 1
[2] = Solubility in tricresylphosphate and crystallization tendency on cooling; assay type: physicochemical; settings: for Solubility: in tricresylphosphate, under stirring at 60° C.; for Not-to-Crystallize Tendency: tricresylphosphate solution cooled at room temperature
Method: The compounds shown in Table 2 were added with a quantity of tricresylphosphate under stirring at 60° C. up to obtain a limpid solution. The samples were then cooled at room temperature and the crystallization tendency thereof was evaluated.

In the case of `C=CCn1cccc1/C=C1\C(=O)ON=C1c1ccc(NS(=O)(=O)CCCC)cc1` [Compound I-2], the D400 [1] was 0.41, the D450 [1] was 0.24 and the D500 [1] was 0.00. For the same compound, the “λmax (nm)” value [1] was 421 nm.
With `CCCCS(=O)(=O)Nc1ccc(C2=NOC(=O)/C2=C\C2CN(CCC(=O)OCC)c3ccccc32)cc1` (centres unmarked) [E] the D400 [1] was 0.26, the D450 [1] was 0.50 and the D500 [1] was 0.00. For the same compound, the “λmax (nm)” value [1] was 437 nm, the Solubility [2] was “good” and the “Not-to-Crystallize Tendency” value [2] was “not good”.
`CCCCS(=O)(=O)Nc1ccc(C2=NOC(=O)/C2=C\C2CN(CCC(=O)OCC)c3ccccc32)cc1` (centres unmarked) [D] showed a D400 [1] of 0.35, a D450 [1] of 0.00 and a D500 [1] of 0.00. For the same compound, the “λmax (nm)” value [1] was 374 nm and the “spectral region absorbed (in words)” value ([1]; listed as Sample 12) was “mainly absorb in the ultraviolet”.
For `CCCCS(=O)(=O)Nc1ccc(C2=NOC(=O)/C2=C\c2cccn2C(CC)C(=O)OCCOCC)cc1` (centres unmarked) [Compound I-7], the D400 [1] was 0.42, the D450 [1] was 0.03 and the D500 [1] was 0.00. The “λmax (nm)” value [1] was 423 nm, the “Not-to-Crystallize Tendency” value [2] was “good” and the “Not-to-Crystallize Tendency” value ([2]; listed as Sample 7) was “do not exhibit any tendency to crystallize”.
`CCCCS(=O)(=O)Nc1ccc(C2=NOC(=O)/C2=C\C2CN(CCC(=O)OCC)c3ccccc32)cc1` (centres unmarked) [F] gave a D400 [1] of 0.28, a D450 [1] of 0.54 and a D500 [1] of 0.00. For the same compound, the “λmax (nm)” value [1] was 437 nm, the Solubility [2] was “good” and the “Not-to-Crystallize Tendency” value [2] was “not good”.
With `COc1ccc(C2=NOC(=O)/C2=C\c2ccc[nH]2)cc1` [Compound I-3] the D400 [1] was 0.48, the D450 [1] was 0.08 and the D500 [1] was 0.00. For the same compound, the “λmax (nm)” value [1] was 418 nm.
In the case of `CCCCS(=O)(=O)Nc1ccc(C2=NOC(=O)/C2=C\C2CN(CCC(=O)OCC)c3ccccc32)cc1` (centres unmarked) [C], the D400 [1] was 0.45, the D450 [1] was 0.03 and the D500 [1] was 0.00. For the same compound, the “λmax (nm)” value [1] was 377 nm and the “spectral region absorbed (in words)” value ([1]; listed as Sample 11) was “mainly absorb in the ultraviolet”.
Work on `CCCCS(=O)(=O)Nc1ccc(C2=NOC(=O)/C2=C\C2CN(CCC(=O)OCC)c3ccccc32)cc1` (centres unmarked) [Compound G] yielded a D400 [1] of 0.27, a D450 [1] of 0.55 and a D500 [1] of 0.00. The “λmax (nm)” value [1] was 438 nm, the Solubility [2] was “good” and the “Not-to-Crystallize Tendency” value [2] was “not good”.
`C=CCn1cccc1/C=C1\C(=O)ON=C1C(C)(C)C` [Compound I-6] showed a D400 [1] of 0.52, a D450 [1] of 0.17 and a D500 [1] of 0.00. The “λmax (nm)” value [1] was 415 nm.
For `CCCCS(=O)(=O)Nc1ccc(C2=NOC(=O)/C2=C\C2CN(CCC(=O)OCC)c3ccccc32)cc1` (single isomer, unassigned) [B], the D400 [1] was 0.09, the D450 [1] was 0.53 and the D500 [1] was 0.10. For the same compound, the “λmax (nm)” value [1] was 463 nm and the “spectral region absorbed (in words)” value [1] was “mainly absorb in the blue region, but that the green region (500-600 nm) is also interested”.
`CCOC(=O)CCn1cccc1/C=C1\C(=O)ON=C1c1ccc(OC)cc1` [Compound I-4] showed a D400 [1] of 0.44, a D450 [1] of 0.22 and a D500 [1] of 0.00. The “λmax (nm)” value [1] was 420 nm.
For `CCOC(=O)Cn1cccc1/C=C1\C(=O)ON=C1c1ccc(OC)cc1` [Compound I-5], the D400 [1] was 0.47, the D450 [1] was 0.21 and the D500 [1] was 0.00. The “λmax (nm)” value [1] was 419 nm.
